Test systems include SF-295 CNS; HCT-116 colon; CAKI-1 renal; HCC-2998 colon; LOX IMVI melanoma; MOLT-4 leukemia; SK-MEL-5 melanoma; NCI-H226 lung; SNB-75 CNS; MDA-MB-435; NCI/ADR-RES ovarian.
Assay in all cases: DTP human tumour cell line panel, 48 h

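Protocol summary: plate cells (96-well), add compound at 5 concentrations, incubate 48 h, interpolate endpoints linearly. Definition used: TGI = concentration required for complete inhibition of growth.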 Where a SMILES comes first, the peptide text is derived from it. Bounds are passed on as bounds.

Results on twelve molecules are retold here after PubChem BioAssay (NCI).

With `COC(=O)C1(C)OC(C)=NC1(C(=O)OC)C(=O)OC` (configuration not stated), the TGI in the experiment with SF-295 CNS, with HCT-116 colon, in the experiment on CAKI-1 renal, in the experiment with HCC-2998 colon, in the experiment on LOX IMVI melanoma and in the experiment with MOLT-4 leukemia was > 100 µM throughout. The TGI in the experiment on SK-MEL-5 melanoma, with NCI-H226 lung, in the experiment with SNB-75 CNS, in the experiment with MDA-MB-435 and in the experiment on NCI/ADR-RES ovarian was > 100 µM each time.

In the case of `O=c1c(Sc2ncccn2)c(Sc2ncccn2)cnn1CCl`, the TGI in the experiment on SF-295 CNS amounted to 30 µM; in the experiment with HCT-116 colon, 3.89 µM; in the experiment on CAKI-1 renal, 5.89 µM; in the experiment with HCC-2998 colon it was 24 µM; in the experiment on LOX IMVI melanoma, 5.28 µM; in the experiment with MOLT-4 leukemia it was 10.6 µM. The concentration for total growth inhibition (TGI) with SK-MEL-5 melanoma is 21.2 µM; in the experiment on NCI-H226 lung it was > 76.8 µM; in the experiment with SNB-75 CNS, 34.6 µM; with MDA-MB-435 it was 3.87 µM; in the experiment on NCI/ADR-RES ovarian, 24.4 µM.

Take `CC(=O)NC(CO)C(=O)NC(Cc1ccc(O)cc1)C(=O)NCC(N)=O` (stereo not drawn) (Ac-Ser-Tyr-Gly-NH2; configuration not given here): the TGI in the experiment with SF-295 CNS, with HCT-116 colon, in the experiment with CAKI-1 renal, in the experiment on HCC-2998 colon, with LOX IMVI melanoma and in the experiment on MOLT-4 leukemia was > 100 µM in each case. The total growth inhibition concentration (TGI) in the experiment with SK-MEL-5 melanoma, with NCI-H226 lung, in the experiment on SNB-75 CNS, in the experiment with MDA-MB-435 and in the experiment on NCI/ADR-RES ovarian was > 100 µM throughout.

Consider `Oc1ccc(Cn2c(-c3ccc(O)cc3)nc3ccccc32)cc1`, for which the TGI in the experiment with SF-295 CNS, in the experiment with HCT-116 colon, in the experiment with CAKI-1 renal, in the experiment on HCC-2998 colon, in the experiment with LOX IMVI melanoma and in the experiment on MOLT-4 leukemia was > 100 µM in each case. Also, the TGI in the experiment with SK-MEL-5 melanoma, in the experiment on NCI-H226 lung, in the experiment with SNB-75 CNS, in the experiment with MDA-MB-435 and in the experiment with NCI/ADR-RES ovarian was > 100 µM each time.

Consider `N#Cc1c(N2CCOCC2)ncn(-c2ccc(Cl)cc2)c1=O`, for which the TGI in the experiment on SF-295 CNS, with HCT-116 colon, in the experiment with CAKI-1 renal, with HCC-2998 colon, with LOX IMVI melanoma and in the experiment on MOLT-4 leukemia was > 100 µM throughout. Further, the TGI in the experiment on SK-MEL-5 melanoma, in the experiment on NCI-H226 lung, in the experiment with SNB-75 CNS, in the experiment on MDA-MB-435 and with NCI/ADR-RES ovarian was > 100 µM in each case.

As to `CCOP(=O)(OCC)C(=C1C=C(C(C)(C)C)C(=O)C(C(C)(C)C)=C1)P(=O)(OCC)OCC`, the TGI in the experiment with SF-295 CNS is > 10 µM; in the experiment with HCT-116 colon, 5.67 µM; in the experiment on CAKI-1 renal, > 6.25 µM; in the experiment with HCC-2998 colon, > 10 µM; with LOX IMVI melanoma it was > 10 µM; with MOLT-4 leukemia, > 10 µM. The TGI in the experiment with SK-MEL-5 melanoma, with NCI-H226 lung, in the experiment with SNB-75 CNS, in the experiment on MDA-MB-435 and in the experiment on NCI/ADR-RES ovarian was > 10 µM throughout.

`Cc1nc(Nc2nc3ccccc3[nH]2)[nH]c(=O)c1CCO`: the TGI in the experiment on SF-295 CNS is > 100 µM; in the experiment with HCT-116 colon, > 100 µM; in the experiment on CAKI-1 renal it was > 100 µM; in the experiment with HCC-2998 colon it was > 100 µM; with LOX IMVI melanoma, > 94.7 µM; in the experiment with MOLT-4 leukemia, > 100 µM. Also, the TGI in the experiment with SK-MEL-5 melanoma was > 100 µM; in the experiment on NCI-H226 lung, > 96 µM; with SNB-75 CNS, > 100 µM; with MDA-MB-435 it was > 100 µM; in the experiment with NCI/ADR-RES ovarian it was > 100 µM.

With `COC(=O)C1=NN2c3ccccc3CN([C@@H](C)c3ccccc3)C(=O)[C@H]2[C@@H]1C`, the TGI in the experiment on SF-295 CNS, in the experiment on HCT-116 colon, with CAKI-1 renal, in the experiment with HCC-2998 colon, in the experiment with LOX IMVI melanoma and in the experiment with MOLT-4 leukemia was > 100 µM in each case. For the same molecule, the TGI was 30.1 µM in the experiment on SK-MEL-5 melanoma; > 100 µM in the experiment on NCI-H226 lung; 95 µM in the experiment on SNB-75 CNS; > 100 µM in the experiment with MDA-MB-435; > 100 µM with NCI/ADR-RES ovarian.

As to `CCN1C(=O)CS/C1=N\NC(=O)CSc1nc2ccccc2c(=O)n1CC`, the concentration for total growth inhibition (TGI) in the experiment on SF-295 CNS, in the experiment with HCT-116 colon, in the experiment with CAKI-1 renal, in the experiment with HCC-2998 colon, in the experiment on LOX IMVI melanoma and in the experiment on MOLT-4 leukemia was > 100 µM throughout. Besides, the TGI in the experiment on SK-MEL-5 melanoma, with NCI-H226 lung, with SNB-75 CNS, in the experiment with MDA-MB-435 and with NCI/ADR-RES ovarian was > 100 µM in each case.

Turning to `CCCc1cc(-c2ccc(-c3cc(CCC)c(C=O)[nH]3)s2)[nH]c1C=O`, the TGI is > 92.4 µM in the experiment on SF-295 CNS; > 100 µM with HCT-116 colon; > 100 µM in the experiment on CAKI-1 renal; 22.9 µM in the experiment with HCC-2998 colon; 32.1 µM in the experiment with LOX IMVI melanoma; > 100 µM with MOLT-4 leukemia. Further, the TGI in the experiment on SK-MEL-5 melanoma, in the experiment with NCI-H226 lung, in the experiment with SNB-75 CNS, in the experiment with MDA-MB-435 and in the experiment with NCI/ADR-RES ovarian was > 100 µM throughout.

Consider `CCCN(CCC)C(=O)c1c(Cl)c2cccnc2n2c(C)cnc12`, for which the TGI with SF-295 CNS was > 100 µM; in the experiment with HCT-116 colon, > 100 µM; with CAKI-1 renal it was 79.7 µM; in the experiment with HCC-2998 colon, > 100 µM; in the experiment with LOX IMVI melanoma it was > 100 µM; in the experiment with MOLT-4 leukemia, > 100 µM. For the same molecule, the concentration for total growth inhibition (TGI) is > 100 µM in the experiment on SK-MEL-5 melanoma; > 100 µM in the experiment with NCI-H226 lung; > 100 µM in the experiment with SNB-75 CNS; 85.3 µM with MDA-MB-435; > 100 µM with NCI/ADR-RES ovarian.

On to `Cc1ccc([N+](=O)[O-])c2c(NCCC[N+](C)(C)[O-])ccnc12`, for which the TGI was > 100 µM in the experiment on SF-295 CNS; > 100 µM with HCT-116 colon; > 100 µM with CAKI-1 renal; 58.9 µM in the experiment on HCC-2998 colon; > 100 µM in the experiment on LOX IMVI melanoma; > 100 µM in the experiment on MOLT-4 leukemia. Further, the total growth inhibition concentration (TGI) in the experiment on SK-MEL-5 melanoma is 24.6 µM; in the experiment with NCI-H226 lung, > 100 µM; in the experiment with SNB-75 CNS it was > 100 µM; in the experiment on MDA-MB-435, > 100 µM; in the experiment on NCI/ADR-RES ovarian, > 100 µM.

Broadly, the TGI is the concentration giving total growth inhibition. A high value points to lower sensitivity of the cells.
